2 compounds from paper PMC8216281, “RNA pull-down confocal nanoscanning (RP-CONA) detects quercetin as pri-miR-7/HuR interaction inhibitor that decreases α-synuclein levels” (Nucleic Acids Research, 2021) can be followed below.

The target in assay [1] is T1, HuR (Homo sapiens, UniProt Q15717).
T1 construct: gene ELAVL1; mCherry-HuR (HuR open reading frame), overexpressed in HuR KO HEK293T lysate
The experiment in a line: RP-CONA on-bead confocal assay: inhibition of mCherry-HuR binding to pri-miR-7-1-CTL RNA in cell lysate; confirmed by RNA pull-down/western blot. It is filed as biochemical. For orientation: Immunoblotting shows a protein as a band on a membrane.

The target in assay [2] is T1, HuR. The experiment in a line: RP-CONA on-bead confocal assay: inhibition of mCherry-HuR binding to pri-miR-7-1-CTL RNA in cell lysate; confirmed by RNA pull-down/western blot and RIP in cells. It counts as biochemical.

What is called IC50 is the concentration that inhibits the measured activity by half.

T1 sequence (Q15717 2-326): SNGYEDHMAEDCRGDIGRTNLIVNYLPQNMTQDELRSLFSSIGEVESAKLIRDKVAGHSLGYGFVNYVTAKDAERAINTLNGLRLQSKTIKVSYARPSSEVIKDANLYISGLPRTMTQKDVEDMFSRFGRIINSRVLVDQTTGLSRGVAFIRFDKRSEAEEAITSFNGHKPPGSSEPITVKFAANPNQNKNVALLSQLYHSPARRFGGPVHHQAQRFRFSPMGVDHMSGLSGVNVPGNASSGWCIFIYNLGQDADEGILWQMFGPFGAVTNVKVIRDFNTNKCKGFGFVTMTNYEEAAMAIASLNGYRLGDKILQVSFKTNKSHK

With `O=c1cc(-c2ccc(O)c(O)c2)oc2cc(O)cc(O)c12` [luteolin], the IC50 on HuR [1] was 2030 ± 250 nM.

`O=c1c(O)c(-c2ccc(O)c(O)c2)oc2cc(O)cc(O)c12` [quercetin]: the IC50 at HuR [2] amounted to 2150 ± 160 nM.
